Measured values taken from ChEMBL document CHEMBL4145465, “Design, synthesis and biological evaluation of novel ring-opened cromakalim analogues with relaxant effects on vascular and respiratory smooth muscles and as stimulators of elastin synthesis” (Eur J Med Chem, 2018).

Columns and labels:
[1] = system: Thoracic aorta; experiment: Vasorelaxing activity in Wistar rat endothelium-intact thoracic aorta ring assessed as reduction in 30 mM KCl-induced contraction after 15 mins; settings: 0.25 h
[2] = system: Thoracic aorta; experiment: Vasorelaxing activity in Wistar rat endothelium-intact thoracic aorta ring assessed as reduction in 30 mM KCl-induced contraction at 300 uM after 15 mins relative to DMSO; settings: 0.25 h

Row | SMILES | EC50 [1] | Emax [2]
1 | COc1ccc(Cl)cc1C(C)NC(=O)NS(=O)(=O)c1ccc(Cl)cc1 (racemic) | > 300 µM | 40.9%
2 | CCOc1ccc(Br)cc1C(C)NC(=O)NS(=O)(=O)c1ccc(Cl)cc1 (racemic) | 171 µM | 77.6%
3 | COc1ccc(F)cc1C(C)NC(=O)N(C)S(=O)(=O)c1ccc(C)cc1 (racemic) | 11.7 µM | 106%
4 | Cc1ccc(S(=O)(=O)N(C)C(=O)NC(C)c2cc(Br)ccc2OCc2ccccc2)cc1 (racemic) | 67.1 µM | 47.9%
5 | COc1ccc(F)cc1C(C)NC(=O)N(C)S(=O)(=O)c1ccc(Cl)cc1 (racemic) | 12.6 µM | 101%
6 | Cc1ccc(OCc2ccccc2)c(C(C)NC(=O)NS(=O)(=O)c2ccccc2)c1 (racemic) | > 200 µM | 90.7%
7 | COc1ccc(OC)c(CNC(=O)NS(=O)(=O)c2ccccc2)c1 | > 300 µM | -20.3%
8 | CC(NC(=O)N(C)S(=O)(=O)c1ccc(Cl)cc1)c1cc(Br)ccc1OCc1ccccc1 (stereo not given) | 146 µM | 97.3%
9 | COc1ccc(F)cc1C(C)NC(=O)N(C)S(=O)(=O)c1ccccc1 (racemic) | 10 µM | 109%
10 | COc1ccc(Cl)cc1C(C)NC(=O)NS(=O)(=O)c1ccc(C)cc1 (racemic) | > 300 µM | 36.6%
11 | CCOc1ccc(Br)cc1C(C)NC(=O)NS(=O)(=O)c1ccccc1 (racemic) | > 300 µM | 35.9%
12 | CCOc1ccc(Cl)cc1C(C)NC(=O)NS(=O)(=O)c1ccc(C)cc1 (racemic) | > 300 µM | 45.5%
13 | CC(NC(=O)NS(=O)(=O)c1ccccc1)c1ccccc1OCc1ccccc1 (racemic) | > 200 µM | 59%
14 | Cc1ccc(S(=O)(=O)N(C)C(=O)NC(C)c2cc(C)ccc2OCc2ccccc2)cc1 (racemic) | 181 µM | 82.9%
15 | COc1ccc(Br)cc1C(C)NC(=O)NS(=O)(=O)c1ccccc1 (racemic) | > 300 µM | 45.5%
16 | Cc1ccc(S(=O)(=O)NC(=O)NC(C)c2cc(Br)ccc2OC(C)C)cc1 (stereo not given) | 61.8 µM | 93.2%
17 | Cc1ccc(S(=O)(=O)NC(=O)NC(C)c2cc(C)ccc2OCc2ccccc2)cc1 (racemic) | 91.9 µM | 106%
18 | CC(C)Oc1ccc(Br)cc1C(C)NC(=O)N(C)S(=O)(=O)c1ccccc1 (racemic) | 32.1 µM | 81.5%
19 | CCOc1ccc(Cl)cc1C(C)NC(=O)NS(=O)(=O)c1ccccc1 (stereo not given) | > 300 µM | 15.8%
20 | CCOc1ccc(F)cc1C(C)NC(=O)NS(=O)(=O)c1ccc(C)cc1 (racemic) | > 300 µM | 26.2%
21 | COc1ccc(OC)c(CNC(=O)NS(=O)(=O)c2ccc(C)cc2)c1 | > 300 µM | -14.5%
22 | COc1ccc(Cl)cc1C(C)NC(=O)N(C)S(=O)(=O)c1ccc(C)cc1 (racemic) | 13.8 µM | 107%
23 | CCOc1ccc(F)cc1C(C)NC(=O)N(C)S(=O)(=O)c1ccc(C)cc1 (racemic) | 7.8 µM | 104%
24 | COc1ccc(F)cc1C(C)NC(=O)NS(=O)(=O)c1ccccc1 (racemic) | > 300 µM | 1.2%
25 | CCOc1ccc(Br)cc1C(C)NC(=O)N(C)S(=O)(=O)c1ccc(C)cc1 (racemic) | 28.6 µM | 90.8%
26 | CCOc1ccc(Cl)cc1C(C)NC(=O)N(C)S(=O)(=O)c1ccc(Cl)cc1 (racemic) | 14.6 µM | 105%
27 | CC(NC(=O)N(C)S(=O)(=O)c1ccc(Cl)cc1)c1ccccc1OCc1ccccc1 (racemic) | 38.4 µM | 91.1%
28 | CC(NC(=O)N(C)S(=O)(=O)c1ccccc1)c1cc(Br)ccc1OCc1ccccc1 (racemic) | 60.3 µM | 56.8%
29 | CC(NC(=O)NS(=O)(=O)c1ccccc1)c1cc(Br)ccc1OCc1ccccc1 (racemic) | 130 µM | 92.3%
30 | CCOc1ccc(F)cc1C(C)NC(=O)N(C)S(=O)(=O)c1ccc(Cl)cc1 (racemic) | 24.5 µM | 101%
